Data as given in patent publication US20260069584A1, “METHODS OF TREATING CHRONIC MYELOID LEUKEMIA USING THE TYROSINE KINASE INHIBITOR VODOBATINIB” (Sun Pharma Advanced Research Company Ltd., priority 2022, published 2026).
Where two headings read alike, the source gives them in different places.

Tests used:
clinical = conditions: human, in vivo, po
[1] = Single ascending dose (SAD) study in healthy male volunteers: pharmacokinetics; format: in vivo, human; conditions: for Dose proportionality, Slope Estimate: 6 to 24 mg, n 18, power model; for Dose proportionality, Coefficient of determination / Dose proportionality, Intercept Estimate: n 18
Protocol: Initially in the single ascending dose (SAD) study the safety, tolerability, and pharmacokinetics of the compound of Formula I at 6 mg, 12 mg, and 24 mg doses in healthy human male volunteers were evaluated. In this study, the healthy male volunteers within the mean age group of 28.7-35 years were orally administered an investigational medicinal product (IMP) or a placebo after an overnight fast (of at least 8 hours). The IMP used in this study was a hard gelatin capsule comprising the compound of Formula I of varying sizes containing either 6 mg or 24 mg of the compound of Formula I and the excipients. For the 12 mg dose, two capsules of 6 mg were used. The placebo formulation containing the excipients matched the compound of Formula I capsules in shape, size, and color. […] The median time of maximum concentration (Tmax: 2.5-3 hours, across dose range) was independent of the dose level. Dose-related increases in exposure (AUC and Cmax) were observed. […] The inter-subject variability, for the PK parameters, was generally higher in the 12 mg dose group when compared with that in the 6 mg and 24 mg dose groups (Table 07, and FIG. 1)
Referring to FIG. 1, The dose proportionality assessment using ANCOVA was assessed in the PK analysis set. […] The estimates for the slope for all exposure parameters were between 0.9833 and 1.016.

[2] = male, human, plasma, oral, 6 mg (N = 6), mean
[3] = male, human, plasma, oral, 12 mg (N = 6), mean
[4] = male, human, plasma, oral, 24 mg (N = 6), mean

Structure (SMILES): Cc1ccc(C(=O)NNC(=O)c2c(C)cccc2Cl)cc1C#Cc1cnc2ccccc2c1 [compound of Formula I, N′-(2-chloro-6-methylbenzoyl)-4-methyl-3-[2-(3-quinolyl)ethynyl]-benzohydrazide]
- Tmax (clinical): 1.5 to 2.5 h
- AUC(0-t) (clinical; 204 mg): 27500 ng·h/mL
- Cmax (clinical; 204 mg): 3310 ng/mL
- CL/F ([1]; 6 mg (N = 6), geometric mean): 3.708 L/h
- AUC(0-inf)/D ([1]; 6 mg (N = 6), mean): 289 [ng/mL × hour]/mg
- CL/F ([1]; 12 mg (N = 6), geometric mean): 4.956 L/h
- AUC(0-inf)/D ([1]; 12 mg (N = 6), mean): 230.3 [ng/mL × hour]/mg
- Tmax ([1]; 12 mg (N = 6), median): 3 h
- CL/F ([1]; 24 mg (N = 6), geometric mean): 3.8 L/h
- AUC(0-inf)/D ([1]; 24 mg (N = 6), mean): 274.3 [ng/mL × hour]/mg
- Tmax ([1]; 24 mg (N = 6), median): 2.75 h
- Dose proportionality, Slope Estimate ([1]; AUC(0-inf) (ng*h/mL)): 0.9833
- Dose proportionality, Coefficient of determination ([1]; AUC(0-inf) (ng*h/mL)): 0.6145
- Dose proportionality, Intercept Estimate ([1]; AUC(0-inf) (ng*h/mL)): 5.534
- Dose proportionality, Slope Estimate ([1]; AUC(0-last) (ng*h/mL)): 1.016
- Dose proportionality, Coefficient of determination ([1]; AUC(0-last) (ng*h/mL)): 0.6425
- Dose proportionality, Intercept Estimate ([1]; AUC(0-last) (ng*h/mL)): 5.389
- Dose proportionality, Slope Estimate ([1]; Cmax (ng/mL)): 0.9884
- Dose proportionality, Coefficient of determination ([1]; Cmax (ng/mL)): 0.6832
- Dose proportionality, Intercept Estimate ([1]; Cmax (ng/mL)): 3.470
- apparent systemic clearance (CL/F) ([1]; across dose range 6, 12, 24 mg): 3.708 to 4.956 L/h
- Vd/F ([1]; male, human, plasma, oral, 6 mg, 6 mg (N = 6), geometric mean, read-out: Vz/F): 91.6 L
- half-life ([1]; male, human, plasma, oral, 6 mg, 6 mg (N = 6), geometric mean, read-out: t1/2 (converted)): 17.1 h
- AUC(0-t) ([1]; male, human, plasma, oral, 6 mg, 6 mg (N = 6), mean, read-out: AUC(0-24)): 1140 ng·h/mL
- AUC(0-t) ([1]; male, human, plasma, oral, 6 mg, 6 mg (N = 6), mean, read-out: AUC(0-last)): 1570 ng·h/mL
- Vd/F ([1]; male, human, plasma, oral, 12 mg, 12 mg (N = 6), geometric mean, read-out: Vz/F): 90.8 L
- half-life ([1]; male, human, plasma, oral, 12 mg, 12 mg (N = 6), geometric mean, read-out: t1/2 (converted)): 12.7 h
- AUC(0-t) ([1]; male, human, plasma, oral, 12 mg, 12 mg (N = 6), mean, read-out: AUC(0-24)): 1920 ng·h/mL
- AUC(0-t) ([1]; male, human, plasma, oral, 12 mg, 12 mg (N = 6), mean, read-out: AUC(0-last)): 2640 ng·h/mL
- Vd/F ([1]; male, human, plasma, oral, 24 mg, 24 mg (N = 6), geometric mean, read-out: Vz/F): 69.8 L
- half-life ([1]; male, human, plasma, oral, 24 mg, 24 mg (N = 6), geometric mean, read-out: t1/2 (converted)): 12.7 h
- AUC(0-t) ([1]; male, human, plasma, oral, 24 mg, 24 mg (N = 6), mean, read-out: AUC(0-24)): 4760 ng·h/mL
- AUC(0-t) ([1]; male, human, plasma, oral, 24 mg, 24 mg (N = 6), mean, read-out: AUC(0-last)): 6240 ng·h/mL
- AUC(0-t) ([1]; male, human, plasma, oral, 24 mg, SAD study, read-out: maximum value of AUC(0-24)): 6080 ng·h/mL
- half-life ([1]; male, human, plasma, oral, 24 mg, across dose range 6, 12, 24 mg, read-out: apparent terminal half-life (t1/2)): 12.7 to 17.1 h
- Vd/F ([1]; male, human, plasma, oral, 24 mg, across dose range 6, 12, 24 mg, read-out: apparent volume of distribution (Vz/F)): 69.8 to 91.6 L
- AUC(0-t) ([1]; male, human, plasma, oral, 24 mg, highest dose level (24 mg), read-out: mean AUC(0-24)): 4760 ng·h/mL
- AUC(0-inf) [1, 2]: 1740 ng·h/mL
- Cmax [1, 2]: 234 ng/mL
- Tmax ([1]; male, human, plasma, oral, 6 mg (N = 6), median, read-out: tmax): 2.5 h
- AUC(0-inf) [1, 3]: 2770 ng·h/mL
- Cmax [1, 3]: 285 ng/mL
- AUC(0-inf) [1, 4]: 6580 ng·h/mL
- Cmax [1, 4]: 909 ng/mL
- Tmax ([1]; male, human, plasma, oral, across dose range 6, 12, 24 mg, read-out: median time of maximum concentration (Tmax)): 2.5 to 3 h
- absorption after oral administration ([1]; single dose 6 mg, 12 mg, or 24 mg): rapidly absorbed
